Measured values published in ChEMBL document CHEMBL1201862, “PubChem BioAssay data set” (2004).
Calls of active or inactive are those of the source.

Experiments:
[1] = molecular target: T1, Corticotropin-releasing factor receptor 2/Corticotropin-releasing factor-binding protein (Homo sapiens, UniProt P24387+Q13324); experiment: activators of CRF receptor 2 with binding protein – uHTS hits, confirmation (AID 602473); format: functional; settings: read-out: EC50_Mean
T1 sequence (Q13324 whole entry): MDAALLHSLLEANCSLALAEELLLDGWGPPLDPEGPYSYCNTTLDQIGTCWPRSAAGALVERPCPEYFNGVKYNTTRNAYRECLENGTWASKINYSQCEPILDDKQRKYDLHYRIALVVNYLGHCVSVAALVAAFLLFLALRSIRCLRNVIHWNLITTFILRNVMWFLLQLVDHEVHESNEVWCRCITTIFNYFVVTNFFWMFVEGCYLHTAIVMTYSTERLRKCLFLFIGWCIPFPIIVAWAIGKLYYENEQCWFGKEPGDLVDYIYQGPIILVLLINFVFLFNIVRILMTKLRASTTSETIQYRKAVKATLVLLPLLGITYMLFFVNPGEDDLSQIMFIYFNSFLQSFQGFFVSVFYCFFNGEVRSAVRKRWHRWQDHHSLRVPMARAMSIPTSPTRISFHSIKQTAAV
T1 sequence (P24387 whole entry): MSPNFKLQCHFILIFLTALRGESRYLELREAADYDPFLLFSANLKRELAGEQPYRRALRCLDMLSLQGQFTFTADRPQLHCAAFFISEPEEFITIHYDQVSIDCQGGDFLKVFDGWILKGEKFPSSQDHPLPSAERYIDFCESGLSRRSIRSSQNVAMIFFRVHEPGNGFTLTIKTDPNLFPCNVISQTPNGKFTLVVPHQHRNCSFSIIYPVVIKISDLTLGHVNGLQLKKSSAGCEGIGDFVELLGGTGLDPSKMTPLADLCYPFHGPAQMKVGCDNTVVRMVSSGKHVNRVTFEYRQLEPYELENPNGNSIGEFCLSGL

[2] = molecular target: T1, Corticotropin-releasing factor receptor 2/Corticotropin-releasing factor-binding protein; experiment: Dose Response confirmation of uHTS hits for small molecule antagonists of the CRF-binding protein and CRF-R2 receptor complex.; format: functional; settings: read-out: IC50_Mean
[3] = molecular target: T2, Rac GTPase-activating protein 1 (Homo sapiens, UniProt Q9H0H5); experiment: blockers of MgcRacGAP-driven Rac1 GTP hydrolysis – biochemical, ADP Hunter fluorescence, primary and confirmatory, confirmation (AID 624330); format: functional
T2 sequence (Q9H0H5 whole entry): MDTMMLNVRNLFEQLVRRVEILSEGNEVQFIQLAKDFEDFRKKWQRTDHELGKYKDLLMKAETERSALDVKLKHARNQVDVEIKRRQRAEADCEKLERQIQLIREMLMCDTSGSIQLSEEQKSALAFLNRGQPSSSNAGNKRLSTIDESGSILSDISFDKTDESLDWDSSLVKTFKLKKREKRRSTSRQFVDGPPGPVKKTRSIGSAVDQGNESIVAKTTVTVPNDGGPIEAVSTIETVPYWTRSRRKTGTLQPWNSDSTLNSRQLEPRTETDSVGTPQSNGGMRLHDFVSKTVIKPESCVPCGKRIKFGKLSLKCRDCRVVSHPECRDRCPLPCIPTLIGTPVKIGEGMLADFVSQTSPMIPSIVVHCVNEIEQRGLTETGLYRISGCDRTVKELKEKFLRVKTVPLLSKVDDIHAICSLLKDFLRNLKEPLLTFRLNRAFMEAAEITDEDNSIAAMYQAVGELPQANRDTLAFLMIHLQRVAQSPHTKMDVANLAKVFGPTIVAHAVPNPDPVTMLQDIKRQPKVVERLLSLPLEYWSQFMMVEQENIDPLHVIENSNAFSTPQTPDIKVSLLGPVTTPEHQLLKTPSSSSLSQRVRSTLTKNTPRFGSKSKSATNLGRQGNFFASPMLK

Cytochrome P450 3A4 = Cytochrome P450 3A4 (Homo sapiens, UniProt P08684);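 also: CYP3A4 tested as one member of a cytochrome P450 panel screen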
Cytochrome P450 3A4, sequence (P08684 whole entry): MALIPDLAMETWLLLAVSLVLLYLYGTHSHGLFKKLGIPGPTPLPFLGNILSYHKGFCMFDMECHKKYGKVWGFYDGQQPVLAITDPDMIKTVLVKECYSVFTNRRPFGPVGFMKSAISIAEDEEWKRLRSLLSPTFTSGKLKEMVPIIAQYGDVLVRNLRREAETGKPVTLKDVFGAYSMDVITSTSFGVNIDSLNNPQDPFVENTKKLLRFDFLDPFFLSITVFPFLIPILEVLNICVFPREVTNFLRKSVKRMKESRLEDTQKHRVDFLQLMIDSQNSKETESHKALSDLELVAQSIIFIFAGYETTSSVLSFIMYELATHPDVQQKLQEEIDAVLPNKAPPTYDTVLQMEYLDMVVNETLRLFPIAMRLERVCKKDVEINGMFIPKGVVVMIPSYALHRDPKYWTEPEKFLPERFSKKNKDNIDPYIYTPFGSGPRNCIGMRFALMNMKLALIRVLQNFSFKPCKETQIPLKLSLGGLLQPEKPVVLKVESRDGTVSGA

INS1 = experiment: INS-1E survival protection against cytokine death – cell-based, luminescence, retest, dose response (AID 449756); format: functional; settings: Rattus norvegicus, INS1;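 also: cell death triggered by IL-1 beta plus TNF-alpha plus IFN-gamma mixture; protective hits raise ATP signal compared with cytokine alone wells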
[4] = alpha-synuclein stem-loop luciferase translation blockers – H4 neuroglioma cells, luminescence, confirmation (AID 1988); format: functional, cell-based
[5] = luciferase reporter signal suppression in cells – H4 neuroglioma cells, luminescence, dose response (AID 1990); format: functional, cell-based
[6] = Luminescence Cell-Based Dose Response HTS to Identify Inhibitors of 5'UTR Stem-Loop Driven Prion Protein mRNA Translation in H4 Neuroglioblastoma Cells. [Related pubchem assays: 1827 (Project Summary), 1813 (Primary HTS)]; format: functional
Streptococcus = experiment: GAS UMAA2166 growth inhibition – luminescence, BacTiterGlo, counter-screen for streptokinase expression inhibitor project, dose response (AID 1915); format: functional, organism-based;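 also: potency for reduction of bacterial viability or growth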
[7] = test system: Streptococcus sp. 'group A'; experiment: Streptococcus pyogenes SK(-)GAS viability under kanamycin – luminescence, BacTiterGlo, confirmation, counter-screen for streptokinase expression inhibitor project, dose response (AID 1900); format: functional, organism-based
Streptokinase A = molecular target: T3, Streptokinase A (Streptococcus pyogenes serotype M1, UniProt P10520); experiment: viability-normalized secreted streptokinase activity reduction – plasminogen activation absorbance, OD405, dose response (AID 1914); format: functional, Streptococcus pyogenes M1 GAS;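 also: secreted streptokinase activity via plasminogen activation per viability signal from cell pellet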
T3 sequence (P10520 whole entry): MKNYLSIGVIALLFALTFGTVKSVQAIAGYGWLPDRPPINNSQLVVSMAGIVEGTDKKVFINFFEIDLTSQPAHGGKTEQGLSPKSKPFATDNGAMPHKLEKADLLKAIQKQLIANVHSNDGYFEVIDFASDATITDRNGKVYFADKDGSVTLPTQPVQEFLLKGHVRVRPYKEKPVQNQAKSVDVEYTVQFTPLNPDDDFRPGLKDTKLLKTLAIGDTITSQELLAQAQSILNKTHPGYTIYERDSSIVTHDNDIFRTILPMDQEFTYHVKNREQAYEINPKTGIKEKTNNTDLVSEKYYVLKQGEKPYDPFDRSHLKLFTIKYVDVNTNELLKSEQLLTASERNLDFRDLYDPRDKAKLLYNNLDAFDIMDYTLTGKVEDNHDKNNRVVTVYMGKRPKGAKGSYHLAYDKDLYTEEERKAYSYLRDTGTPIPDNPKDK

[8] = Trypanosoma cruzi growth suppression in host cells – NIH3T3 host cells, beta-gal luminescence, confirmation (AID 2044); format: functional, cell-based;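 also: intracellular parasites grown in NIH/3T3 mouse fibroblasts as host cells; luminescent beta-galactosidase reporter signal from transgenic T. cruzi replicating inside host cells; inhibitors lower the luminescence signal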
[9] = NIH3T3 cell viability loss – ATP luminescence, mouse fibroblasts, counter-screen, dose response (AID 2010); format: functional, cell-based;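 also: cells exposed to compound for about 90 hours before reading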

Row | SMILES | EC50 [1] | IC50 [2] | IC50 [3] | other results
1 | O=C(c1ccc2snnc2c1)N1CCN(c2ccccn2)CC1 | > 53 µM (inactive) | > 47.1 µM (inactive) | – | –
2 | O=C(COc1ccccc1)N1CCN(CC2CC3C=CC2C3)CC1 (centres undefined) | – | – | 175 µM (active) | –
3 | O=[N+]([O-])c1cccc(CN2CCN(Cc3ccco3)CC2)c1 | – | – | 98.5 µM (active) | –
4 | COc1ccccc1N1CCN(C(=O)/C=C/c2cccs2)CC1 | > 53 µM (inactive) | > 47.1 µM (inactive) | – | –
5 | CC(C)(C)N=C(S)Nc1ccc(Nc2ccccc2)cc1 | – | – | 103 µM (active) | AC50 (Cytochrome P450 3A4): 11.2 µM (inconclusive)
6 | O=C(Oc1ccc2c(c1)OCO2)c1ccc(Br)c(S(=O)(=O)N2CCOCC2)c1 | – | – | 76.1 µM (active) | –
7 | COc1ccccc1Nc1nnc(S)s1 | – | – | 57.1 µM (active) | –
8 | COC(=O)c1[nH]c2ccccc2c1NC(=O)Oc1ccccc1 | – | – | 15.9 µM (active) | –
9 | CCCCCCc1ccc(N2C[C@H](Cc3ccccc3)[C@@H](CC(=O)Nc3ccccc3)C2=O)cc1 | – | – | – | AC50 (INS1): 14.2 µM (active)
10 | COc1cc([C@@H]2c3cc4c(cc3[C@@H](O)[C@@H](CO)[C@@H]2CO)OCO4)cc(OC)c1O[Si](C)(C)C(C)(C)C | – | – | – | EC50 [4]: 11.5 µM (active); EC50 [5]: 15.9 µM (active); EC50 [6]: 39.1 µM (active)
11 | Cc1ccc(C)c(C(C)NC(=O)c2ccccc2Br)c1 (centres undefined) | > 53 µM (inactive) | > 47.1 µM (inactive) | – | –
12 | O=[N+]([O-])c1cc(C(F)(F)F)ccc1NCCCCNS(=O)(=O)c1ccc(Cl)cc1 | – | – | – | AC50 (INS1): 6.5 µM (active)
13 | CC/C(C)=C1\SC(N2CCN(c3cccc(C(F)(F)F)c3)CC2)=NC1=O | – | – | – | EC50 [4]: > 120 µM (not active); EC50 [5]: 19.9 µM (active); EC50 [6]: > 120 µM (not active)
14 | Cc1ccc(C)c(NC(S)=NCCCN2CCOCC2)c1 | > 53 µM (inactive) | > 47.1 µM (inactive) | – | –
15 | CCn1c(C)nc2cc(C(=O)NN=Cc3ccc([N+](=O)[O-])cc3)ccc21 | > 53 µM (inactive) | > 47.1 µM (inactive) | – | –
16 | COc1cc(/C=C/CN2CCN(CCC(C)C)C(CCO)C2)ccc1O (centres undefined) | – | – | 101 µM (active) | –

Row | SMILES | EC50 [1] | IC50 [2] | IC50 [3] | other results
17 | O=C1CC(Nc2cc(O)nc(O)n2)C(=O)N1c1ccccc1Cl (centres undefined) | > 53 µM (inactive) | > 47.1 µM (inactive) | – | –
18 | CCC(C)Nc1nc(N)c([N+](=O)[O-])c(Nc2cc(OC)ccc2OC)n1 (centres undefined) | – | – | – | EC50 [4]: 13.3 µM (active); EC50 (Streptococcus): 11.9 µM (active); EC50 [7]: 2.35 µM (active); EC50 (Streptokinase A): > 150 µM (not active); EC50 [5]: 10.7 µM (active); EC50 [6]: 12.8 µM (active)
19 | CC(C)NCC(=O)Nc1c2c(nc3ccccc13)CCC2 | – | – | 53.2 µM (active) | –
20 | C[C@H](NC(=O)[C@@H]1Cc2ccccc2CN1)C(=O)NC1CCCCC1 | > 53 µM (inactive) | > 47.1 µM (inactive) | – | –
21 | Nc1ccc2c(c1)Cc1cc(N)c(Br)cc1-2 | – | – | 7.57 µM (active) | –
22 | CC(NC(=O)COC(=O)C12CC3CC(CC(Br)(C3)C1)C2)c1ccccc1 (centres undefined) | > 53 µM (inactive) | > 47.1 µM (inactive) | – | –
23 | O=C1C=C(c2ccc(F)cc2OCc2ccccc2)C[C@@H](c2ccc(Cl)cc2)C1 | – | – | – | AC50 (INS1): 4.89 µM (active)
24 | CNc1nc(NC)nc(NNC(=O)c2ccccc2)n1 | > 53 µM (inactive) | > 47.1 µM (inactive) | – | –
25 | C/C(=N\Nc1nc(C)cc(-c2ccccc2)n1)c1ccc(F)cc1 | – | – | – | AC50 (INS1): 3.13 µM (active)
26 | COc1cccc(/C=N/NC(=O)c2c(-c3ccccc3)noc2C)c1O | – | – | – | AC50 (INS1): 2.5 µM (active)
27 | C/C(=N\NC(=O)c1ccc(NS(=O)(=O)c2cccs2)cc1)c1ccccc1 | > 53 µM (inactive) | > 47.1 µM (inactive) | – | –
28 | Cc1ccccc1NS(=O)(=O)c1ccc(C(=O)N(C)CC(=O)Nc2ccccc2Br)cc1 | > 53 µM (inactive) | > 47.1 µM (inactive) | – | –
29 | CC1(C)CC(=O)C=C(Nc2ccc(O)cc2)C1 | – | – | 20.2 µM (active) | –
30 | COc1ccc(C(=O)NCC(=O)N/N=C/c2ccc([N+](=O)[O-])s2)cc1OC | – | – | – | AC50 (INS1): 8.94 µM (active); EC50 [8]: 0.504 µM (active); EC50 [9]: > 60 µM (not active)
31 | O=C(CNC(=O)c1cccnc1)N/N=C/c1ccc(O)cc1O | – | – | 97.4 µM (active) | –
